# What was measured:
# [1] = Fe2+ induced lipid peroxidation (thiobarbituric acid); type: biochemical; conditions: mean of 6 independent assays
# From the text: (§1) Syringa vulgaris Extracts 1 and 2, prepared as described in examples 1 and 2, have been used to assess in vitro antioxidant action with specific oxygen radical generating systems such as the superoxide anion (O2^−), the hydroxyl radical (HO), the peroxynitrite radical (ONOO^−) and the inhibition of lipid peroxidation. The superoxide anion has been measured by a chemiluminescent assay based on the hypoxanthine (HPX)/xanthine oxidase (XOD) reaction using the Lumimax Superoxide Anion Detection Kit (Stratagene, La Jolla, Calif., USA) and following the manufacturer's instructions. Hydroxyl radical scavenger activity has been measured by means of the Fenton reaction for the production of hydroxyl radicals and chemiluminescent dosage (using a Victor^3 chemiluminometer, Wallac, Finland) with luminol. Peroxynitrite ions have been determined by means of dosage with a spontaneous generator of peroxynitrites (3-morpholinosidnonimine hydrochloride; SIN-1) and a stable reagent for the nitroxyl ions (2-(4-carboxyphenyl)-4,4,5,5-tetramethylimidazoline-1-oxyl-3-oxide potassium salt PTIO spin trap) then dosed by means of electron spin resonance (ESR) using a. Nippon Denshi JES-FR30. […].
# (§2) Extract 1 and Extract 2 listed in Table are derived from Syringa vulgaris cell cultures. In said extracts, verbascoside is present at 0.82% and 35% by weight respectively. […]
# [2] = Superoxide anion chemiluminescent assay (hypoxanthine/xanthine oxidase); type: biochemical; conditions: mean of 6 independent assays
# From the text: (§3) The superoxide anion has been measured by a chemiluminescent assay based on the hypoxanthine (HPX)/xanthine oxidase (XOD) reaction using the Lumimax Superoxide Anion Detection Kit (Stratagene, La Jolla, Calif., USA) and following the manufacturer's instructions. Hydroxyl radical scavenger activity has been measured by means of the Fenton reaction for the production of hydroxyl radicals and chemiluminescent dosage (using a Victor^3 chemiluminometer, Wallac, Finland) with luminol. Peroxynitrite ions have been determined by means of dosage with a spontaneous generator of peroxynitrites (3-morpholinosidnonimine hydrochloride; SIN-1) and a stable reagent for the nitroxyl ions (2-(4-carboxyphenyl)-4,4,5,5-tetramethylimidazoline-1-oxyl-3-oxide potassium salt PTIO spin trap) then dosed by means of electron spin resonance (ESR) using a. Nippon Denshi JES-FR30.
# (§4) Extract 1 and Extract 2 listed in Table are derived from Syringa vulgaris cell cultures. […] The results are expressed as the concentration inhibiting 50% of activity (IC50). The values reported are the means of 6 independent assays.
# [3] = Hydroxyl radical scavenger activity (Fenton reaction, luminol chemiluminescence); type: biochemical; conditions: mean of 6 independent assays
# From the text: as §1, §2
# [4] = Peroxynitrite assay (SIN-1, PTIO spin trap, ESR); type: biochemical; conditions: mean of 6 independent assays
# From the text: as §3, §4
# A549 cells = experiment: Oxidative stress (ROS, DCF fluorescence) in A549 cell cultures; type: cell-based, human; conditions: 20 mM, A549, galactose oxidative stress
# Experimental: 10×10^5 A549 cells (ATCC-CCL195) have been seeded into wells with 3 ml of DMEM/medium (HAM'S F12K) with 10% FCS and incubated at 37° C. in a 5% CO2, water vapour saturated atmosphere. After 24 hours the culture medium is replaced by medium supplemented with 5.55 mM galactose, which is left in contact with the cells for 20 hours. The medium is once again replaced with medium containing galactose in the presence or absence of the test compound. After 5 hours, quantitative measurement of the ROSs is performed by washing the cells with phosphate buffer and then incubating them with 30 μM DCF-DA in buffer solution. At the end of a 15 minute incubation, excess DCF-DA is removed from the cells by washing, prior to measuring the fluorescence emitted.
# Antioxidant activity measurements are performed using a (Hitachi F3010) spectrophotometer with excitation at 488 nm and measuring emission at 525 nm, and values are expressed in pmoles, by extrapolation from the calibration curve constructed using known quantities of DCF, in relation to total cellular protein. Values are thus expressed in % ages with respect to the ROS, content of the cells not subjected to oxidative stress, to which are assigned a value of 100.
# Syringa vulgaris Extracts 1 and 2 and ascorbic acid have been dissolved in phosphate buffer.
structure (smiles),measurement,setting,value
"C[C@@H]1O[C@@H](O[C@@H]2[C@@H](O)[C@H](OCCc3ccc(O)c(O)c3)O[C@H](CO)[C@H]2OC(=O)/C=C/c2ccc(O)c(O)c2)[C@H](O)[C@H](O)[C@H]1O [Verbascoside, b-(3,4-dihydroxyphenyl)-ethyl-O-α-L-ramnopyranosyl (1″-3′)-b-D-(4′-O-caffeoil)-glucopyranoside]",Lipid peroxidation (IC50),[1],7.4 µg/mL
same,Superoxide radical (IC50),[2],3.1 µg/mL
same,Hydroxyl radial (IC50),[3],2.2 µg/mL
same,Peroxynitrite radical (IC50),[4],1.6 µg/mL
same,ROS level (%),A549 cells,85 ± 7 %

# Source: patent US10456434B2, “Extracts obtained from cell line cultures from plants belonging to the Oleaceae family (e.g. Syringa vulgaris), their preparation and use” (CRODA ITALIANA S. P. A., priority 2005, dated 2019)
